System: Rice Green Leaf Hoppers (Nephoteftix Virescens)
Assay: Activity against rice green leaf hoppers, foliar spray on rice plants
Assay type: in vivo
Conditions: 300 ppm; after 72 hours
Description: Leaf hopper and plant hoppers adults used for bioassay were obtained from a colony maintained continuously under laboratory conditions. For testing purposes, the test compound was diluted in 300 ppm (wt compound:vol diluent) in a 1:1 mixture of acetone:water, plus 0.1% EL 620 surfactant.
Hopper activity was evaluated using the foliar spray technique. Pofted rice plants (2-3 week old, Variety TN-1) were cleaned and dried prior to application. All plants were treated inside the fume hood using DeVilbiss atomizer at 25 psi with a spray volume of 5 ml/plant. To ensure uniform spray distribution, plants were placed in a rotating flat form inside the fume hood. Treated plants were then placed inside the holding room and allowed to dry for 2 hours. Each plant was caged using Mylar cages (4 inches diameter×19 inches in height) and inoculated with 10 adults hoppers. All test plants were held under continuous light and a temperature of about 28° C. for duration of the assay. Percent mortality was observed after 72 hours.

In the case of `Cc1ccc(-c2ccc(S(=O)(=O)NCc3ccnc4ccccc34)cc2)c(Cl)c1` [I-32], the mortality is reported as ≥ 75%.

— patent US20090029855A1, “Quinoline Derivatives and Their Use as Pesticides” (priority 2006, published 2009)
